{"source": "patent US11730734B2", "about": "“Use of ATR and Chk1 inhibitor compounds” (University of Florida Research Foundation, Incorporated, priority 2016, dated 2023)", "key": {"17+HSV-1": {"system": "17+HSV-1", "assay": "Antiviral assay, HSV-1 titering (viral titer / PFU on rabbit skin cells)", "assay_type": "cell-based", "details": "U2OS cells, 17+HSV-1 MOI=0.1, 48 h; ATR inhibitors 10 μM, Chk1 inhibitors 250 nM, aphidicolin 4 μM, KU55933 10 μM, Chk2 inhibitor II 5 μM, NU7441 1 μM", "protocol": "The following ATR inhibitors were purchased from Selleckchem and used at 10 μM final: VE-822 (catalog no. 57102 Batch No. 1), VE-821 (catalog no. S8007), AZD6738 (catalog no. S7693), and AZ20 (catalog no. S7050). Chk1 inhibitors were purchased from Axon Medchem and used at 250 nM final concentration (CHIR 124, catalog no. Axon 1636 and PF 477736, catalog no. Axon 1379). Other chemical inhibitors and their final concentrations described in this study are: Chk2 inhibitor II hydrate (5 μM, Sigma, catalog no. C3742), ATM inhibitor KU55933 (10 μM, Tocris, catalog no. 3544), DNA-PK inhibitor NU7441 (1 μM, Tocris, catalog no. 3712), and aphidicolin (4 μM, Sigma, catalog no. A0781).\nCells were plated at 5×10^5 cells per well in 6-well plates and the following morning incubated with inhibitors. Following 1 h pre-incubation with inhibitors, cells were infected with HSV-1 at an MOI=0.1 in a volume of 200 uL for 1 h, viral inoculum removed, and cells overlaid with media containing fresh inhibitors, and cultured for 48 h. Following 48 h, cells and supernatant were harvested by scraping, separated into two Eppendorf tubes, and centrifuged at 10,000×g for 40 min. The cell pellet from one tube was used for extraction of DNA (DNazol according to manufacturer's recommendation, ThermoFisher Sci. catalog no. 10503027) and the second pellet was re-suspended in 200 uL serum-free MEM, freeze-thawed 3×, and virus titered on rabbit skin cells. For HSV-1 titering, rabbit skin cells were plated at 150,000 cells/well of 24-well plates and the following day infected with 10-fold serial dilutions of virus harvested from antiviral experiments. Cells were incubated for 48 h, stained with 1% crystal violet solution, and plaques counted from three separate wells for each experimental sample. […] Additional experimental compounds were also tested as follows: (57) Cyclohexamide (Sigma, catalog no. C7698) or DMSO vehicle was added to the overlay media at 50 ug/mL and the infection allowed to proceed for 5 h. […]"}, "ATR": {"system": "ATR", "assay": "ATR activation (pATR S428 immunofluorescence) in HSV-1 infected U2OS cells", "assay_type": "cell-based", "details": "for ATR activation (pATR labeling): 5 h", "description": "(§1) Cells were plated at 5×10^5 cells per well in 6-well plates and the following morning incubated with inhibitors. Following 1 h pre-incubation with inhibitors, cells were infected with HSV-1 at an MOI=0.1 in a volume of 200 uL for 1 h, viral inoculum removed, and cells overlaid with media containing fresh inhibitors, and cultured for 48 h. Following 48 h, cells and supernatant were harvested by scraping, separated into two Eppendorf tubes, and centrifuged at 10,000×g for 40 min. The cell pellet from one tube was used for extraction of DNA (DNazol according to manufacturer's recommendation, ThermoFisher Sci. catalog no. 10503027) and the second pellet was re-suspended in 200 uL serum-free MEM, freeze-thawed 3×, and virus titered on rabbit skin cells. For HSV-1 titering, rabbit skin cells were plated at 150,000 cells/well of 24-well plates and the following day infected with 10-fold serial dilutions of virus harvested from antiviral experiments. Cells were incubated for 48 h, stained with 1% crystal violet solution, and plaques counted from three separate wells for each experimental sample. Q-PCR was conducted using 20 ng input DNA, TaqMan® Fast Universal PCR 2× Master Mix (Applied Biosystems, catalog no. 4352041) along with TaqMan probes and target-specific primers (Applied Biosystems, Assays by Design part no. 4331348) against HSV-1 polymerase. Samples were run on a StepOnePlus Real-Time PCR System (Applied Biosystems) using fast cycling: denaturation at 95° C. for 20 sec followed by 40 cycles at 95° C. for 1 sec and 60° C. for 20 sec. Additional experimental compounds were also tested as follows: […] Cyclohexamide (Sigma, catalog no. C7698) or DMSO vehicle was added to the overlay media at 50 ug/mL and the infection allowed to proceed for 5 h. (2) For replication inhibition, phosphonoacetic acid (PAA) was added at time of virus adsorption and included in overlay media at 400 ug/mL for 5 h. (3) A final [3 mM] hydroxyurea was added at the time of cell plating and incubated for 18 h. […]"}, "[1]": {"system": "viral replication centers", "assay": "Viral replication center formation / maturation (immunofluorescence)", "assay_type": "cell-based, HSV-1", "details": "for replication center formation: 5 h", "description": "as §1"}, "ICP4": {"system": "ICP4", "assay": "ICP4 expression by immunofluorescence in HSV-1 infected cells", "assay_type": "cell-based", "details": "VE-822 10 μM, 17+HSV-1 MOI=10, 5 h.p.i.", "description": "(§2) U2OS cells were plated onto coverslips at 75,000 cells per well of 24-well plates and the following day infected at an MOI=10 for the indicated times.\n(§3) Thereafter, cells were processed for immunofluorescence in one of two ways that incorporated an Fc receptor blocking step: (1) cells were fractionated in situ by pre-extraction following previously published procedures; briefly, cells were incubated in Cytoskeleton Buffer (CB; 100 mM PIPES, 300 mM sucrose, 100 mM NaCl, 3 mM MgCl2, 1 mM EGTA) for 5 min on ice followed by incubation in Cytoskeleton Stripping Buffer (CSK; 10 mM Tri-HCL pH 7.4, 10 mM NaCl, 3 mM MgCl2, 1% Tween-40, 1% Tween-20, 0.5% sodium deoxycholate) for 5 min on ice. Cells were then washed 3× with PBS and fixed with Streck fixative (150 mM 2-bromo-2-nitro-1,3-propanediol, 108 mM diazolidinyl urea, 10 mM sodium citrate, 50 mM EDTA) for 30 min at RT, washed with PBS, and permeabilized with 0.5% Triton X-100 in 100 mM Tris-HCL pH 7.4 plus 50 mM EDTA for 15 min at RT. Cells were then incubated sequentially with Fc Receptor Blocker (Innovex Biosciences, catalog no. NB309) for 30 min at RT followed by blocking buffer (5% goat serum, 0.1% NP-40, 20 mM Tris-HCL pH 7.4, 150 mM NaCl) for 30 min at RT. (2) In some cases cells were fixed in 3.7% paraformaldehyde in PBS for 5 min at RT followed by blocking with Fc Receptor Blocker and blocking buffer as above. […]"}, "ICP8": {"system": "ICP8", "assay": "ICP8 expression in HSV-1 infected cells (data not shown)", "assay_type": "cell-based", "details": "VE-822 10 μM", "description": "as §2, §3"}, "Chk1 [2]": {"system": "Chk1", "assay": "Chk1 activation (pChk1 S345 Western blot) in HSV-1 infected cells", "assay_type": "cell-based", "description": "5×10^5 cells were plated on 6-well plates and infected the following day with 17syn+(MOI=10). At the indicated times, cells were lysed in buffer containing 1% NP-40, 150 mM sodium chloride, 20 mM Tris-HCL pH 8.0, 2 mM EDTA, and 5% glycerol supplemented with phosphatase and protease inhibitor cocktails (Roche, PhosSTOP tablets; catalog no. 04906837001; ThermoFisherSci., Halt Protease Inhibitor Cocktail, catalog no. 1862209). For SDS-PAGE, 20 ug of protein was mixed with NuPAGE 4×LDS sample buffer (ThermoFisher Sci., catalog no. NP0007) along with NuPAGE Sample Reducing Agent (ThermoFisher Sci., catalog no. NP0004) and run on 4-12% Bis-Tris NuPAGE gels (ThermoFisher Sci.) with NuPAGE MOPS SDS running buffer (ThermoFisher Sci., catalog no. NP000102). Gels were transferred onto 0.22 μm PVDF in Towbin buffer (0.2 M Glycine, 25 mM Tris Base) containing 20% MeOH for 2 h under constant voltage (30V), the membrane blocked with 5% non-fat dry milk (NFDM)-TBST (20 mM Tris-HCL pH 7.4, 150 mM NaCl, 0.1% Tween-20) and probed with antibodies diluted in 1% NFDM-TBST overnight at 4° C. For ATR and ATM western blots, samples were processed as above except DTT (50 mM, Cell Signaling, catalog no. 7016) was used as the reducing agent and samples were run on NuPAGE Novex 3-8% Tris-acetate gels (ThermoFisher Sci.) with NuPAGE Tris-acetate SDS running buffer (ThermoFisher Sci., catalog no. LA0041). […]"}, "Chk1 [3]": {"system": "Chk1", "assay": "Chk1 activation following KD6 infection of permissive Vero cell line K5", "assay_type": "cell-based", "details": "KD6 infection of Vero cell line K5, cycloheximide"}}, "note": "Entries after “also recorded” stand apart in the source; their conditions may differ."}
{"molecule": "Cn1cc(-c2[nH]c3cc(NC(=O)[C@H](N)C4CCCCC4)cc4c3c2C=NNC4=O)cn1", "note": "[PF477736]", "values": [{"measurement": "viral titers (HSV-1 PFU, virus production)", "setting": "17+HSV-1", "value": "significantly impact virus production"}]}
{"molecule": "O=C(O)CP(=O)(O)O", "note": "[PAA, phosphonoacetic acid]", "values": [{"measurement": "ATR activation (pATR labeling)", "setting": "ATR; PAA 400 ug/mL from virus adsorption", "value": "partially suppressed ATR activation; also recorded: partial suppression; also recorded: partially blocks pATR labeling"}, {"measurement": "replication center formation", "setting": "[1]; PAA 400 ug/mL", "value": "retards replication center formation"}]}
{"molecule": "CNCc1ccc(-c2cc(-c3nc(-c4ccc(S(=O)(=O)C(C)C)cc4)cnc3N)on2)cc1", "note": "[VE-822]", "values": [{"measurement": "ATR activation (pATR)", "setting": "ATR; VE-822 10 μM, 17+HSV-1 MOI=10, 5 h.p.i.", "value": "blocked ATR activation; also recorded: blocks activation of both ATR and Chk1"}, {"measurement": "expression of ICP4", "setting": "ICP4", "value": "blocked expression of ICP4; also recorded: blocking expression of both ICP4 and ICP8"}, {"measurement": "expression of ICP8", "setting": "ICP8", "value": "blocked expression; also recorded: blocking expression of both ICP4 and ICP8"}, {"measurement": "Chk1 activation / phosphorylation", "setting": "Chk1 [2]; VE-822 10 μM, 17+HSV-1 MOI=10, Western blot", "value": "Chk1 activation was also blocked; also recorded: blocks activation of both ATR and Chk1; also recorded: blocks phosphorylation of Chk1"}, {"measurement": "maturation of replication centers", "setting": "[1]; VE-822, during HSV-1 infection", "value": "blocks maturation of replication centers"}]}
{"molecule": "C[C@@H]1C[C@@H]([C@H](O)CC2CC(=O)NC(=O)C2)C(=O)[C@@H](C)C1", "note": "[cycloheximide]", "values": [{"measurement": "ATR activation (pATR labeling)", "setting": "ATR; cycloheximide 50 ug/mL in overlay media", "value": "completely blocked ATR activation; also recorded: complete suppression; also recorded: completely suppresses pATR labeling"}, {"measurement": "Chk1 activation", "setting": "Chk1 [3]", "value": "blocked"}, {"measurement": "Chk1 activation", "setting": "Chk1 [2]; cycloheximide", "value": "complete suppression"}, {"measurement": "replication center formation", "setting": "[1]; cycloheximide 50 ug/mL", "value": "retards replication center formation"}]}
{"molecule": "C[C@@]1(CO)[C@H](O)CC[C@@]2(C)[C@H]1CC[C@H]1C[C@@H]3C[C@@]12CC[C@]3(O)CO", "note": "[aphidicolin]", "values": [{"measurement": "viral titers (HSV-1 PFU, virus production)", "setting": "17+HSV-1", "value": "significantly inhibit viral titers; also recorded: significantly impact virus production"}]}
